Usually IC50 stands for the point on the concentration scale where inhibition reaches its midpoint. By Kd is commonly meant the equilibrium constant for the complex coming apart. As usually defined, the Km is the concentration of substrate that gives half-maximal velocity. One may read the kcat as the maximal rate divided by the concentration of active sites.

Where “and” joins values, the source holds several entries; their conditions need not be identical. Identical values can stand only once. Counter-ions that a name gives are not always drawn. Like-named read-outs stand apart in the source and are kept apart here.

The test system of one series is lung tumor. On the set-up: method as in PMID 24957098. To be noted: in vivo; cited from earlier work.
Series [1] addresses T1, m-NAD(P)-ME (Homo sapiens, UniProt P23368).
T1 construct: made in house; host or cells: E. coli BL21 (pRH281 vector, trp promoter)
Nature of the series: Size distribution analysis by analytical ultracentrifugation: monomer-dimer-tetramer equilibrium with different ligands. Format: binding. Particulars: NAD+-bound enzyme vs apoenzyme.
Experimental: All sedimentation velocity data were globally fitted by a monomer-dimer-tetramer equilibrium model by the software program of SEDPHAT[34]. The parameters protein partial specific volume, solvent density and viscosity were calculated with the [sequence] software program[35].

For series [2], the target named is T1, m-NAD(P)-ME. The experiment in a line: Quaternary structure analysis by native gel electrophoresis. The format is binding. To be noted: 8 μg enzyme; 0.4 or 2 mM NAD+, 0.5 or 2 mM ATP. As for the experimental part: The native gel was running under 110 Voltage with a running buffer (25 mM Tris-HCl and 192 mM glycine, pH8.3) at 4 °C. After electrophoresis, protein was detected by staining with the Coomassie brilliant blue R-250.
Figure S1. Quaternary structure of m-NAD(P)-ME determined by the native gel electrophoresis. The dimer-tetramer distribution of m-NAD(P)-ME was presented on the 3-12% Bis-Tris Native PAGE (NativePAGE^TM Novex®, Life Technologies).

The test system of series [3] is human non-small cell lung carcinoma H1299 cancer cells. More on the design: method as in PMID 26008970. To be noted: cited from earlier work.
The target of the next series is T2, human m-NAD(P)-ME WT (Homo sapiens, UniProt P23368).
T2 construct: made in house; host or cells: E. coli BL21 (pRH281 vector, trp promoter)
The experiment in a line: ATP/ADP inhibition of enzyme activity. The format is biochemical. Here is the method:
(§1) The ME reaction was measured with the production rate of NADH or NADPH via the absorbance at 340 nm. The reaction mixture in a saturated condition included 1 mM NAD(P)^+, 40 mM malate, and 10 mM MgCl2 in 50 mM Tris-HCl (pH 7.4). To determine the Km and kcat values, the concentration of one substrate was varied around its Km values while the concentrations of the other components were fixed at saturated concentrations.
C is the slope of the curve at its midpoint. […] All of the calculations were performed using the Sigma Plot 10.0 software program (Jandel Scientific, San Rafael, CA, USA).

Series [4] has as its target T1, m-NAD(P)-ME. Nature of the series: Fumarate titration, activation of enzyme activity. Format: biochemical. To be noted: WT; 15 mM L-malate, 10 mM MgCl2, 1 mM NAD+, pH 7.4; fumarate 0 to 6 mM. Here is the method: as §1
Figure S2. Fumarate activating effect on human m-NAD(P)-ME WT and the exosite mutants.

Series [5] concerns the target human m-NAD(P)-ME WT and the exosite mutants. The experiment in a line: Size distribution analysis by analytical ultracentrifugation of WT and exosite mutants, protein only, with NAD+ or with ATP. The format is binding. Particulars: PBS. As for the experimental part:
Size distribution of the monomer-dimer-tetramer equilibrium of the enzyme was monitored using a Beckman Optima XL-A analytical ultracentrifuge instrument. A protein sample (380 µl) and reference buffer (400 µl) were loaded into a well-assembled cell with a double-sector centerpiece. Experiments were performed with an An-50Ti rotor at 42,000 rpm and 20 °C for 3 to 4 hours. The scans for sedimentation velocity data were monitored by the UV absorbance at 280 nm with a 480 s interval time and a 0.002 cm step size in continuous distribution mode. Using the SEDFIT 9.4c software[31]–[34], the size distribution of the enzyme was analyzed with a resolution corresponding to N = 200 to cover the range of sedimentation coefficient (S) values from approximately 0.1 to 20, a confidence level of p = 0.95, and a best-fit average anhydrous frictional ratio (f/f0). The dissociation constants of monomer-dimer-tetramer self-association model were globally analyzed by using the SEDPHAT software.
All sedimentation velocity data were globally fitted by a monomer-dimer-tetramer equilibrium model by the software program of SEDPHAT[34]. The parameters protein partial specific volume, solvent density and viscosity were calculated with the […] software program.
Figure 4 Continuous sedimentation coefficient distribution of human m-NAD(P)-ME WT and the exosite mutants. The enzyme concentrations were fixed at 1.6, 4.7, and 14.2 μM in PBS. […] (a) ME2_WT; (b) ME2_H154V; (c) ME2_K156A; (d) ME2_G192A; (e) ME2_R194N; (f) ME2_R197E; (g) ME2_R197D.
Figure 5 Continuous sedimentation coefficient distribution of human m-NAD(P)-ME WT and the exosite mutants. The enzyme concentrations were fixed at 1.6, 4.7, and 14.2 μM in PBS. […] (a) ME2_N482G; (b) ME2_N482A; (c) ME2_R542V; (d) ME2_Y552F; (e) ME2_R556Q; (f) ME2_R556V.

Series [6] concerns human m-NAD(P)-ME WT and exosite mutants. Nature of the series: Enzyme kinetic assay (NADH production, absorbance at 340 nm) of WT and exosite mutants. The format is biochemical. To be noted: for K0.5,malate / Km / kcat: pH 7.4. As for the experimental part:
as §1
The cooperativity of malate was determined with the following equation: ν=Vmax×[Malate]^h/K0.5h+[Malate]^h where ν is the initial velocity, Vmax is the maximum rate of the reaction, K0.5 is the substrate concentration at half-maximal velocity, and h is the Hill coefficient, which represents the degree of cooperativity.

T1 sequence (P23368 19-584): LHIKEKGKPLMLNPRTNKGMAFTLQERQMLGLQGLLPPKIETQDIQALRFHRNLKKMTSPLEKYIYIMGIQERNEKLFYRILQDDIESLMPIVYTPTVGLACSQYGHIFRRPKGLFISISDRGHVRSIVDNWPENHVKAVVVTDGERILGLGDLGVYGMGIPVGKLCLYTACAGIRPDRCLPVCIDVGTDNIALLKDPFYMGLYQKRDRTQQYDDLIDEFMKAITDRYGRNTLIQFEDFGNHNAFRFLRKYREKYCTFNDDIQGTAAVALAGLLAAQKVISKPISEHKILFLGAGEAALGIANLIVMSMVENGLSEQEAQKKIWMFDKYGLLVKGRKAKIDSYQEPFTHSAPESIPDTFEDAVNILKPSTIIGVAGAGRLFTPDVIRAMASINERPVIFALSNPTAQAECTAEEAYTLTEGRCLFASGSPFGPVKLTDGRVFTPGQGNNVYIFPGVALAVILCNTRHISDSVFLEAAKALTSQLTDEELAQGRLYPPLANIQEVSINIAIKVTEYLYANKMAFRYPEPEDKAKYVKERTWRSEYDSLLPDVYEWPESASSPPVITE
T2 sequence (P23368 19-584): as above

As to `COC(=O)CC(O)C(=O)OC` (stereo not drawn) [DMM, dimethyl-malate], the “effect on lung tumor growth” value in the series on lung tumor is on record as “suppress lung tumor growth in vivo”.
Consider `NC(=O)c1ccc[n+]([C@@H]2O[C@H](COP(=O)([O-])OP(=O)(O)OC[C@H]3O[C@@H](n4cnc5c(N)ncnc54)[C@H](O)[C@@H]3O)[C@@H](O)[C@H]2O)c1` [NAD, NAD^+], for which the “Kd,24 lower than that of the apoenzyme” value on m-NAD(P)-ME [1] is 6 fold. For the same compound, at m-NAD(P)-ME [2], the “dimer-tetramer distribution of the enzyme on native gel” value is listed as “most tetrameric forms”.
`O=C(O)c1cc2ccccc2c(Cc2c(O)c(C(=O)O)cc3ccccc23)c1O` [EA, Embonic acid]: in series [3], the “effect on cell growth” value is reported as “suppresses the cell growth” and the “effect on cellular senescence” value is listed as “induces the cellular senescence”.
As for `Nc1ncnc2c1ncn2[C@@H]1O[C@H](COP(=O)(O)OP(=O)(O)O)[C@@H](O)[C@H]1O` [ADP], the IC50 at human m-NAD(P)-ME WT was 3740 µM and 3700 µM.
`O=C(O)/C=C/C(=O)O` [FUM, fumarate]: on m-NAD(P)-ME [4], the “maximal activation of the enzyme by fumarate” value is on record as “approximately 2 fold”.
On to “N482A: exosite mutant of human m-NAD(P)-ME”, for which the Kd was 0.29 ± 0.01 µM in series [5] (protein only, read-out: Kd,12 monomer-dimer dissociation constant); 0.95 ± 0.03 µM in series [5] (protein only, read-out: Kd,24 dimer-tetramer dissociation constant); 1.44 ± 0.04 µM in series [5] (read-out: Kd,12(ATP), with 0.5 mM ATP); 0.35 ± 0.01 µM in series [5] (read-out: Kd,24(ATP), with 0.5 mM ATP); 0.58 ± 0.03 µM in series [5] (with 0.4 mM NAD+, read-out: Kd,12(NAD)); 0.97 ± 0.05 µM in series [5] (with 0.4 mM NAD+, read-out: Kd,24(NAD)). Also, the “h (Hill coefficient, malate cooperativity)” value in series [6] ((+) with 5 mM fumarate) was determined as 1.04 ± 0.14; in series [6] ((−) without fumarate), 1.87 ± 0.70. For the same compound, the “K0.5,malate” value in series [6] ((+) with 5 mM fumarate) came out at 1.02 ± 0.08 mM; in series [6] ((−) without fumarate) it was 17.43 ± 5.10 mM. Further, the Km in series [6] ((+) with 5 mM fumarate) worked out at 20 ± 10 µM; in series [6] ((−) without fumarate), 700 ± 170 µM. For the same compound, the figures for the kcat in series [6] ((+) with 5 mM fumarate) and in series [6] ((−) without fumarate) were 215.6 ± 0.1 s⁻¹ and 169.1 ± 0.6 s⁻¹, respectively.
